ChEMBL document CHEMBL1201862, “PubChem BioAssay data set” (2004)
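Method: 48-hour compound exposure of cells in 96-well plates, five concentrations, linear interpolation of endpoints. GI50: concentration for 50% inhibition of growth.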 Active and inactive are the calls of the source. No stated cut-off is given here; in the data, active = GI50 up to about 1.1 µM and inactive = higher.

Experiments:
Test in all cases: inhibition of tumour cell growth, NCI panel, 48 h
A549 = system: A549
COLO 205 = system: COLO 205
HL-60 = system: HL-60
KM12 = system: KM12
MCF7 = system: MCF7
MDA-MB-435 = system: MDA-MB-435
OVCAR-3 = system: OVCAR-3
OVCAR-5 = system: OVCAR-5
RPMI-8226 = system: RPMI-8226
RXF 393 = system: RXF 393
SF-539 = system: SF-539
SK-MEL-2 = system: SK-MEL-2
SNB-75 = system: SNB-75
SW-620 = system: SW-620
TK-10 = system: TK-10
U-251 = system: U-251
UACC-257 = system: UACC-257
UACC-62 = system: UACC-62
UO-31 = system: UO-31
SK-MEL-5 = system: SK-MEL-5

Row | SMILES | GI50 (A549) | GI50 (COLO 205) | GI50 (HL-60) | GI50 (KM12) | GI50 (MCF7) | GI50 (MDA-MB-435) | GI50 (OVCAR-3) | GI50 (OVCAR-5) | GI50 (RPMI-8226) | GI50 (RXF 393) | GI50 (SF-539) | GI50 (SK-MEL-2) | GI50 (SNB-75) | GI50 (SW-620) | GI50 (TK-10) | GI50 (U-251) | GI50 (UACC-257) | GI50 (UACC-62) | GI50 (UO-31) | GI50 (SK-MEL-5)
1 | CC(=O)Nc1ccc(S(=O)(=O)N=S(C)C)cc1 | > 100 µM (inactive) | > 100 µM (inactive) | > 100 µM (inactive) | > 100 µM (inactive) | > 100 µM (inactive) | > 100 µM (inactive) | > 100 µM (inactive) | > 100 µM (inactive) | > 100 µM (inactive) | > 100 µM (inactive) | > 100 µM (inactive) | > 100 µM (inactive) | > 100 µM (inactive) | > 100 µM (inactive) | > 100 µM (inactive) | > 100 µM (inactive) | > 100 µM (inactive) | > 100 µM (inactive) | > 100 µM (inactive) | –
2 | COC(=O)/C=C1/OC(c2ccccc2)=CC1=O | 29 µM (inactive) | 15.9 µM (inactive) | 2.24 µM (inactive) | 16.7 µM (inactive) | 11.7 µM (inactive) | 18.3 µM (inactive) | 17.9 µM (inactive) | 18.6 µM (inactive) | 6.25 µM (inactive) | 14.5 µM (inactive) | 20.3 µM (inactive) | 22.5 µM (inactive) | 15.5 µM (inactive) | 16.1 µM (inactive) | 18.6 µM (inactive) | 16.4 µM (inactive) | 24.7 µM (inactive) | 18.6 µM (inactive) | 17.8 µM (inactive) | 19.9 µM (inactive)
3 | C1CSCCSCCCSCCSCCCSCCSCCCSCCSC1 | > 100 µM (inactive) | > 100 µM (inactive) | > 100 µM (inactive) | > 100 µM (inactive) | > 100 µM (inactive) | > 100 µM (inactive) | > 100 µM (inactive) | > 100 µM (inactive) | 86.1 µM (inactive) | > 100 µM (inactive) | > 100 µM (inactive) | > 100 µM (inactive) | – | > 100 µM (inactive) | > 100 µM (inactive) | > 100 µM (inactive) | > 100 µM (inactive) | – | > 100 µM (inactive) | > 100 µM (inactive)
4 | CC(=O)C1(/N=N/c2ccc(S(N)(=O)=O)cc2)CCOC1=O (stereo not given) | > 100 µM (inactive) | > 100 µM (inactive) | 64.6 µM (inactive) | > 100 µM (inactive) | > 100 µM (inactive) | > 100 µM (inactive) | > 100 µM (inactive) | > 100 µM (inactive) | – | > 100 µM (inactive) | > 100 µM (inactive) | > 100 µM (inactive) | > 100 µM (inactive) | > 100 µM (inactive) | > 100 µM (inactive) | > 100 µM (inactive) | > 100 µM (inactive) | > 100 µM (inactive) | > 100 µM (inactive) | > 100 µM (inactive)
5 | COc1nc(N)c(N=O)c(OCc2ccccc2)n1 | > 10 µM (inactive) | 1.09 µM (active) | 4.84 µM (inactive) | > 10 µM (inactive) | 5.04 µM (inactive) | 6.31 µM (inactive) | 4.01 µM (inactive) | > 10 µM (inactive) | > 10 µM (inactive) | 5.15 µM (inactive) | 3.3 µM (inactive) | > 10 µM (inactive) | > 10 µM (inactive) | 1.61 µM (inactive) | > 10 µM (inactive) | > 10 µM (inactive) | > 10 µM (inactive) | 5.89 µM (inactive) | – | 7.89 µM (inactive)
6 | COc1ccc(NC(=O)C(C#N)=C(SC)SC)cc1 | > 100 µM (inactive) | > 100 µM (inactive) | 75.3 µM (inactive) | – | > 100 µM (inactive) | > 100 µM (inactive) | > 100 µM (inactive) | > 100 µM (inactive) | > 100 µM (inactive) | > 100 µM (inactive) | > 100 µM (inactive) | > 100 µM (inactive) | – | > 100 µM (inactive) | > 100 µM (inactive) | > 100 µM (inactive) | > 100 µM (inactive) | > 100 µM (inactive) | 60.3 µM (inactive) | > 100 µM (inactive)
7 | Cc1cc(C)c2c(=O)n(CN3CCN(c4ccccc4)CC3)sc2n1 | 33.8 µM (inactive) | 19.5 µM (inactive) | 9.71 µM (inactive) | > 100 µM (inactive) | 29.7 µM (inactive) | 37.8 µM (inactive) | 36.6 µM (inactive) | 27.7 µM (inactive) | – | 12.6 µM (inactive) | 18.6 µM (inactive) | 17.2 µM (inactive) | 15.8 µM (inactive) | 29.2 µM (inactive) | 49.5 µM (inactive) | 23.4 µM (inactive) | 46.6 µM (inactive) | 53.2 µM (inactive) | 21.6 µM (inactive) | 28.3 µM (inactive)
8 | COC1/C=C(C)/C=C/C(C)/C=C/C(=O)OC(/C(C)=C/C=C(\C)CNC(=O)[C@H](CO)NC=O)C(C)/C=C/C=C/C(OC)CC/C=C(C)/C=C/C1 (stereo not given in full) | 0.0307 µM (active) | – | 0.0225 µM (active) | 0.0195 µM (active) | 0.052 µM (active) | 0.0224 µM (active) | 0.039 µM (active) | 0.0328 µM (active) | 0.0215 µM (active) | 0.158 µM (active) | 0.0281 µM (active) | 0.0341 µM (active) | > 1 µM (active) | 0.0469 µM (active) | 0.356 µM (active) | 0.0673 µM (active) | 0.0264 µM (active) | 0.0251 µM (active) | 0.197 µM (active) | 0.0231 µM (active)
9 | COc1cc(/N=C\N(C)C)c2ncccc2c1 | 79.6 µM (inactive) | > 100 µM (inactive) | 26.8 µM (inactive) | – | 48.5 µM (inactive) | 28.5 µM (inactive) | 56.6 µM (inactive) | > 100 µM (inactive) | 46.5 µM (inactive) | 75.3 µM (inactive) | 33.5 µM (inactive) | 46.2 µM (inactive) | 52.8 µM (inactive) | – | > 100 µM (inactive) | 79.3 µM (inactive) | > 100 µM (inactive) | 54.1 µM (inactive) | 52 µM (inactive) | 52.1 µM (inactive)
10 | CC(C)=CCc1c(O)c(CC=C(C)C)c2oc(-c3ccc(O)cc3O)c(CC=C(C)C)c(=O)c2c1O | 5.4 µM (inactive) | 27.1 µM (inactive) | 7.06 µM (inactive) | 5.57 µM (inactive) | 3.98 µM (inactive) | 4.52 µM (inactive) | 7.1 µM (inactive) | 14.8 µM (inactive) | 3.43 µM (inactive) | 4.99 µM (inactive) | 16.3 µM (inactive) | 3.66 µM (inactive) | 10.6 µM (inactive) | 6.1 µM (inactive) | 8.85 µM (inactive) | 9.12 µM (inactive) | 12.5 µM (inactive) | 7.14 µM (inactive) | 8.22 µM (inactive) | 10.8 µM (inactive)
11 | CCN1CCCc2cc3c(C(F)(F)F)cc(=O)oc3cc21 | > 100 µM (inactive) | 63.8 µM (inactive) | 0.0258 µM (active) | > 100 µM (inactive) | 56.2 µM (inactive) | 73.1 µM (inactive) | 33 µM (inactive) | > 100 µM (inactive) | – | 20.6 µM (inactive) | > 100 µM (inactive) | > 100 µM (inactive) | 42.5 µM (inactive) | > 100 µM (inactive) | > 100 µM (inactive) | > 100 µM (inactive) | 42.1 µM (inactive) | > 100 µM (inactive) | > 100 µM (inactive) | 28.6 µM (inactive)
12 | NNC(=S)N/N=C(\C(=O)Nc1cccc(O)c1)C1C(=O)NC(=S)NC1=O | > 100 µM (inactive) | – | > 100 µM (inactive) | > 100 µM (inactive) | > 100 µM (inactive) | > 100 µM (inactive) | > 100 µM (inactive) | > 100 µM (inactive) | > 100 µM (inactive) | > 100 µM (inactive) | > 100 µM (inactive) | > 100 µM (inactive) | > 100 µM (inactive) | > 100 µM (inactive) | > 100 µM (inactive) | > 100 µM (inactive) | > 100 µM (inactive) | > 100 µM (inactive) | > 100 µM (inactive) | > 100 µM (inactive)
13 | C/C(=N\Nc1nc2ccccc2s1)c1ncccn1 | 0.141 µM (active) | < 0.01 µM (active) | < 0.01 µM (active) | 0.128 µM (active) | 0.0164 µM (active) | 0.363 µM (active) | < 0.0215 µM (active) | 0.415 µM (active) | 0.0775 µM (active) | 1.04 µM (active) | 0.0757 µM (active) | 0.92 µM (active) | 0.617 µM (active) | < 0.0154 µM (active) | – | < 0.0196 µM (active) | < 0.0205 µM (active) | 0.101 µM (active) | 0.022 µM (active) | 0.03 µM (active)
14 | CC1=NN(C(=O)CC(=O)Nc2cccc(C)c2)C(=O)C1/N=N/c1ccc(S(=O)(=O)CCOS(=O)(=O)O)cc1 (stereo not given) | 4.48 µM (inactive) | 2.45 µM (inactive) | 1.33 µM (inactive) | 2.51 µM (inactive) | 0.746 µM (active) | 0.211 µM (active) | 3.65 µM (inactive) | 36.6 µM (inactive) | 1.86 µM (inactive) | 1.62 µM (inactive) | 2 µM (inactive) | 0.313 µM (active) | 0.805 µM (active) | 0.406 µM (active) | 13.1 µM (inactive) | 3.32 µM (inactive) | 7.71 µM (inactive) | 1.81 µM (inactive) | 2.93 µM (inactive) | 0.369 µM (active)
15 | CC(C)[Si]1(C(C)C)OCC2OC(n3ccc(=O)[nH]c3=O)C(O)(CO)C2O[Si](C(C)C)(C(C)C)O1 (stereo not given) | 14.4 µM (inactive) | 17.6 µM (inactive) | 14.4 µM (inactive) | 16.5 µM (inactive) | 15.1 µM (inactive) | 17 µM (inactive) | 15.8 µM (inactive) | 15.9 µM (inactive) | 9.82 µM (inactive) | 15.6 µM (inactive) | 17.7 µM (inactive) | 16.7 µM (inactive) | – | 17.1 µM (inactive) | 17.4 µM (inactive) | 15.1 µM (inactive) | 15.3 µM (inactive) | 15.8 µM (inactive) | 10.2 µM (inactive) | 15.1 µM (inactive)
